Measured values as given in patent US12441775B2, “BCL-W polypeptides and mimetics for treating or preventing chemotherapy-induced peripheral neuropathy and hearing loss” (Dana-Farber Cancer Institute, Inc., priority 2016, dated 2025).

Tests used:
[1] = test system: axonal mitochondria of E15 DRG neurons; assay: TMRE measurement of mitochondrial membrane potential in microfluidic cultures; type: cell-based, rat; details: paclitaxel added to distal axon compartment
Method: Microfluidic chambers cultures were prepared as described (see, e.g., Fenstermacher et al., Nature Neuroscience, 19:690-696 (2016)), with modifications. Briefly, 3×10^4E15 DRG neurons (4 μl volume) were plated into one channel of a microfluidic device (Xona Microfluidics, SND450) affixed to a PDL/laminin-coated cover glass (Fisherbrand Microscope Cover Glass; 24×40-1.5). Cells were plated in media with 0.3 μM AraC; 50 ng/mL NGF+BDNF was added to cell body wells, and 100 ng/ml was added to axon wells. On day 2, cell body neurotrophins were reduced to 10 ng/ml. On day 4, cell body neurotrophins were reduced to 1 ng/ml and axon neurotrophins were reduced to 10 ng/ml. For paclitaxel treatment experiments, 60 μM paclitaxel or 0.1% DMSO vehicle control was added on day 5 to axon wells for 48 hours. Cells were fixed at room temperature with 4% PFA diluted 1:2 in media for 10 min, then undiluted 4% PFA for an additional 10 min.
Tetramethylrhodamine ethyl ester measurements of mitochondrial membrane potential. […] Fluorescence intensity of axonal mitochondria was measured by dividing the fluorescence intensity of each mitochondria (Fm) by the background fluorescence intensity of a nearby cytoplasmic region (Fc). Fluorescence intensity was measured using NIH ImageJ software for 80 mitochondria per condition across three experiments, by an observer blind to condition.

bclw+/+ and bclw−/− mice = assay: Noxious thermal sensation threshold, 50° C. hot-plate; type: in vivo, mouse; details: paclitaxel 4 mg/kg every other day for 8 days
Method: Paclitaxel treatment and behavioral testing. 2 month old age-matched bclw−/− and bclw+/+ mice (17-30 g) of either sex were injected intraperitoneally (IP) with 4 mg/kg paclitaxel (Bristol-Myers Squibb) every other day for 8 days (4 total injections). Paclitaxel was prepared as 1 part 6 mg/ml paclitaxel stock solution diluted in vehicle (1:1 v/v Cremophor EL [EMD Millipore] and dehydrated ethanol) and 2 parts sterile saline and injected at 10 μl/g. Control mice were injected with 1 part vehicle and 2 parts saline. […] For three days prior to the baseline testing, mice were weighed, trained on an automated RotaRod apparatus (4 rpm for 1 min without falling), and habituated in von Frey cages. The next two days, baseline behavioral performance was assessed and averaged. The first paclitaxel injection was given three days later, and mice were weighed and behaviorally tested 10 days after the final injection. To assay motor function, mice were placed on the RotaRod with a ramp of 4-40 rpm and 0.4 rpm/sec acceleration, and latency to fall was measured. […] Withdrawal threshold was determined to be the applied force at which the animal withdrew the stimulated paw on at least 2 of 10 applications. […] Mouse behavior was assessed by an experimenter blind to genotype and condition.

[2] = test system: axons of E15 DRG sensory neurons; assay: Axonal degeneration assay in compartmented chamber cultures (degeneration index); type: cell-based, rat; details: for axon degeneration (axonal fragmentation, degeneration index): 24 hours
Method: Cell culture. Compartmented chamber (Campenot) cultures were prepared as described (see, e.g., Fenstermacher et al., Springer Protocols: Neuromethods, 103:105-124 (2015)), with modifications. Briefly, DRGs from embryonic day 15 (E15) rats of either sex were dissected and trypsinized. DRGs (1.2×10^5 cells) were plated in the center compartment of a Teflon divider (Camp10, Tyler Research; Campenot, 1982) affixed to a p35 culture dish coated with growth factor reduced Matrigel basement membrane (BD Biosciences) 1:45 in DMEM. Cultures were maintained in media consisting of Neurobasal (Invitrogen) with 2% B27 supplement (Invitrogen), 1% penicillin-streptomycin, 1% GlutaMAX (Life Technologies), 0.08% glucose, and 0.3 μM cytosine arabinoside (AraC) at 37° C., 7.5% CO2; BDNF+NGF (PeproTech) were added to the cell body compartment at a concentration of 10 ng/ml and to the axon compartment at a concentration of 100 ng/ml for 2d. On day 3, media was replaced and the AraC was omitted. On day 5, neurotrophins were removed from the cell body compartment and reduced to 1 ng/ml in the axon compartments for 3-5 days. […] For calpain inhibition experiments, 20 μM calpain inhibitor III (VWR) and paclitaxel were added simultaneously to distal axon compartment.
Axonal degeneration assay. Compartmented chamber cultures were fixed at room temperature with 4% PFA diluted 1:2 in media for 10 min, then undiluted 4% PFA for an additional 20 min. Cultures were permeabilized with 0.1% TritonX-100 for 10 min, blocked in 3% BSA and 0.1% Triton X-100 for 1 hour at room temperature, and incubated with mouse anti-Tuj1 (1:400; clone Tuj1; Covance) overnight at 4° C. Cultures were then incubated with goat anti-mouse AlexaFluor (1:1000; Invitrogen) for 1 hour at room temperature and counterstained with DAPI. Images of distal axon tips were obtained using a 40× air objective, and axonal degeneration was quantified as a degeneration index, as previously described (Cosker et al., Neuroscience, 33:5195-5207 (2013)). Apoptosis analysis was carried out on the same cultures by taking images in the cell body compartment and counting total and condensed nuclei in NIH ImageJ software by an observer blind to condition.
Protein and peptide introduction. Recombinant His-tagged Bclw, Bcl2, and BclxL proteins (R&D Systems) or control β-galactosidase protein were introduced into cell bodies or axons of compartmented chamber cultures as described (e.g., Cosker et al., Nature Neuroscience, 19:690-696 (2016)). Briefly, 1 μg/μ1 protein was introduced into cultures using 2 μl Chariot reagent (Active Motif). To confirm expression of His-tagged proteins, cell bodies and axons were lysed in nonionic detergent, and protein lysates were separated as above and blotted with the following antibodies: anti-His (1:1000; Novagen) and anti-pan-actin (1:1000; Cell Signaling Technology). FITC-tagged SAHB peptides (BH4-Bclw, BH4-Bcl2, and BH4-BclxL; stock solutions 1 mM in DMSO) were introduced into cell bodies or axons using 350 ng peptide and 2 μl of Chariot reagent diluted 1:10 in water. Control was no peptide with 2 μl of 1:10 diluted Chariot. To confirm peptide expression, cultures were processed for axonal degeneration assay as above, and FITC immunofluorescence was examined with a 40× air objective. Paclitaxel was added to cultures 1 hour after protein or peptide transfection.

SMILES: CC(=O)O[C@H]1C(=O)[C@@]2(C)[C@H]([C@H](OC(=O)c3ccccc3)[C@]3(O)C[C@H](OC(=O)[C@H](O)[C@@H](NC(=O)c4ccccc4)c4ccccc4)C(C)=C1C3(C)C)[C@]1(OC(C)=O)CO[C@@H]1C[C@@H]2O [paclitaxel]
- axonal mitochondrial membrane potential (TMRE Fm/Fc) [1]: reduced axonal mitochondrial membrane potential
- thermal pain sensitivity (hot-plate) (bclw+/+ and bclw−/− mice; bclw+/+ mice): mild thermal hyperalgesia
- thermal pain sensitivity (hot-plate) (bclw+/+ and bclw−/− mice; bclw−/− mice): more severe thermal pain sensitivity
- axon degeneration (axonal fragmentation, degeneration index) ([2]; paclitaxel 30 nM added to cell body compartment): no effect
- axon degeneration (axonal fragmentation, degeneration index) ([2]; paclitaxel 30 nM added to distal axon compartment): increase axon degeneration
- axonal degeneration ([2]; paclitaxel after shRNA knockdown of Bclw): further increased axonal degeneration
